Experimental data reported in patent publication US11230542B2, “Inhibitors of integrated stress response pathway” (Praxis Biotech LLC, priority 2017, dated 2022).
Like-named read-outs stand apart in the source and are kept apart here.

How the values were obtained:
ATF4 = ATF4 expression inhibition assay (thapsigargin-stressed HEK293T cells, western blot); assay type: cell-based; conditions: Homo sapiens, HEK-293T; for inhibition at 0.1 µM: 3 h with 100 nM thapsigargin (Tg) and 100 nM test compound; for inhibition at 0.1 µM / inhibition at 1 µM: Tg alone 0%, untreated 100%; for inhibition at 1 µM: 3 h with 100 nM thapsigargin (Tg) and 1 μM test compound; for IC50: 3 h with 100 nM Tg, test compound 1 nM to 1 μM
Method: HEK293T cells were maintained at 37° C. and 5% CO2 in Dulbecco's Modified Eagle's Media (DMEM) supplemented with 10% fetal bovine serum (FBS), 2 mM L-glutamine, 100 U/ml penicillin, and 100 μg/ml streptomycin. […] Cells without treatment or cells treated with Tg alone were used as controls.
After 3 hours of treatment with Tg and the test compound, cells were lysed with SDS-PAGE lysis buffer. Lysates were transferred to 1.5 ml tubes and sonicated for 3 min, and total protein amounts were quantified using BCA Protein Assay Kit (Pierce). Equal amount of proteins were loaded on SDS-PAGE gels. Proteins were transferred onto 0.2 μm PVDF membranes (BioRad) and probed with primary antibodies diluted in Tris-buffered saline supplemented with 0.1% Tween 20 and 3% bovine serum albumin.
(§1) ATF4 (11815) antibody was used as primary antibody (Cell Signaling Technologies). A horseradish peroxidase (HRP)-conjugated secondary antibody (Rockland) was employed to detect immune-reactive bands using enhanced chemiluminescence (ECL Western Blotting Substrate, Pierce). Quantification of protein bands was done by densitometry using ImageJ.
Percentages of ATF4 inhibition after induction with Tg in the presence of 100 nM or 1 μM of certain test compounds are shown in Table 2 and FIG. 1. Percentage of ATF4 inhibition was calculated as the percent reduction normalized to Tg treatment (0% inhibition) and untreated cells (100% inhibition). Also shown in Table 2 is the calculated IC50 for the test compounds. […] Accordingly, inhibition of ATF4 expression as a result of the test compound indicates suppression of the ISR pathway.

CHO cells = assay: Protein translation assay (puromycin incorporation in CHO cells, unstressed or Tg-stressed); assay type: cell-based, Chinese hamster; conditions: for activity at 0.1 µM / activity at 1 µM: Cricetulus griseus, media alone 100%; for activity at 0.1 µM: read-out: % Recovery of protein expression (100 nM test compound); for protein translation: summary of Table 3; for protein synthesis in a cell versus ATF4 translation: under ISR-stressed or non-ISR stressed conditions
Method: CHO cells were maintained at 37° C. and 5% CO2 in DMEM supplemented with 10% fetal bovine serum (FBS), 2 mM L-glutamine, 100 U/ml penicillin, and 100 μg/ml streptomycin. After reaching 80% of confluence, cells were detached and seeded on 6 well plates in complete media, allowed to recover overnight and treated for 2 hours with 1 μM of the test compound (to assess protein synthesis levels in unstressed condition), or for 1 hour with 100 nM and 1 μM of the test compound and then co-treated with 300 nM Tg and 100 nM and 1 μM of the test compound (to assess the recovery of protein synthesis in a stressed condition). Cells treated with Tg alone were used as controls.
After the 2 hours treatments, media were replaced by adding 10 μg/ml puromycin (Sigma Aldrich) in complete media for 30 min. Media were removed and cells were lysed with SDS-PAGE lysis buffer. Lysates were transferred to 1.5 ml tubes and sonicated for 3 minutes and total protein amount were quantified using BCA Protein Assay Kit (Pierce). Equal amount of protein (30 μg) was loaded on SDS-PAGE gels. Proteins were transferred onto 0.2 μm PVDF membranes (BioRad) and probed with primary antibodies diluted in Tris-buffered saline supplemented with 0.1% Tween 20 and 3% bovine serum albumin.
as §1, with “Puromycin (12D10)” for “ATF4 (11815)”, “(Merck Millipore).” for “(Cell Signaling Technologies).”, “HRP-conjugated” for “horseradish peroxidase (HRP)-conjugated”
Percent increase of protein synthesis in unstressed cells (without Tg treatment) in the presence of media alone or certain test compounds is shown in Table 3 and FIG. 2. The percentage levels were normalized to the media alone condition, which correspond to 100% protein synthesis.
Percent recovery of protein synthesis in stressed cells (with Tg treatment) due to the test compounds at 100 nM or 1 μM is shown in FIGS. 3A and 3B, respectively, and in Table 3. The levels were normalized to the media alone and to Tg alone conditions, which correspond to 100% and 0% respectively.

[1] = CHO cells stressed with 300 nM Tg, Tg alone 0%
[2] = CHO cells stressed with 300 nM Tg, Tg alone 0%, read-out: % Recovery of protein expression (1 μM test compound)
[3] = unstressed CHO cells, 2 h, read-out: % Protein expression relative to untreated (1 μM test compound)

Row | IC50 (ATF4) [nM] | SMILES | inhibition at 0.1 µM (ATF4) [%] | inhibition at 1 µM (ATF4) [%] | activity at 0.1 µM (CHO cells; [1]) [%] | activity at 1 µM (CHO cells; [2]) [%] | activity at 1 µM (CHO cells; [3]) [%] | protein translation (CHO cells) | protein synthesis in a cell versus ATF4 translation (CHO cells)
1 | – | O=C(COc1ccc(Cl)c(F)c1)N[C@@H]1CCCN(CC(O)COc2ccc(Cl)c(F)c2)C1 (stereo partly drawn) [Compound 12, 2-(4-chloro-3-fluorophenoxy)-N-((3R)-1-(3-(4-chloro-3-fluorophenoxy)-2-hydroxypropyl)piperidin-3-yl)acetamide] | 0 | 0 | – | – | – | – | –
2 | 9.52 | O=C(COc1ccc(Cl)c(F)c1)N[C@H]1CC[C@H](NC(=O)c2cc3cc(Cl)ccc3o2)CC1 [Compound 17, trans-5-chloro-N-(4-(2-(4-chloro-3-fluorophenoxy)acetamido)cyclohexyl)benzofuran-2-carboxamide] | 95 | 98 | 87 | 172 | 93.2 | – | –
3 | 51.8 | O=C(NC1CCN(CC(O)COc2ccc(Cl)c(F)c2)CC1)c1cc2cc(Cl)ccc2o1 (stereo not drawn) [Compound 29, 5-chloro-N-(1-(3-(4-chloro-3-fluorophenoxy)-2-hydroxypropyl)piperidin-4-yl)benzofuran-2-carboxamide] | 87 | 95 | 48.4 | 267 | 186 | – | –
4 | – | O=C(COc1ccc(Cl)c(F)c1)NC1CCN(C[C@@H](O)COc2ccc(Cl)c(F)c2)CC1 (single isomer, unassigned) [Compound 27, (+)-2-(4-chloro-3-fluorophenoxy)-N-(1-(3-(4-chloro-3-fluorophenoxy)-2-hydroxypropyl)piperidin-4-yl)acetamide] | 54 | 73 | – | – | – | – | –
5 | – | O=C(COc1ccc(Cl)c(F)c1)N[C@H]1CCCN(CC(O)COc2ccc(Cl)c(F)c2)C1 (stereo partly drawn) [Compound 11, 2-(4-chloro-3-fluorophenoxy)-N-((3S)-1-(3-(4-chloro-3-fluorophenoxy)-2-hydroxypropyl)piperidin-3-yl)acetamide] | 0 | 0 | – | – | – | – | –
6 | 49.9 | O=C(NC1CCN(CCCOc2ccc(Cl)c(F)c2)CC1)c1ccc2cc(Cl)ccc2n1 [Compound 146, 6-chloro-N-(1-(3-(4-chloro-3-fluorophenoxy)propyl)piperidin-4-yl)quinoline-2-carboxamide] | 88 | 100 | 43.4 | 265 | 246 | – | –
7 | 23.8 | O=C(COc1ccc(Cl)cc1)N[C@H]1CC[C@H](NC(=O)C2CNc3cc(Cl)ccc3O2)CC1 (single isomer, unassigned; (-)) [Compound 157, (−)-trans-6-chloro-N-(4-(2-(4-chlorophenoxy)acetamido)cyclohexyl)-3,4-dihydro-2H-benzo[b][1,4]oxazine-2-carboxamide] | 96 | 100 | 39.7 | 97.3 | 118 | – | –
8 | – | O=C(NC1CCN(C[C@@H](O)COc2ccc(Cl)c(F)c2)CC1)c1ccc2cc(Cl)ccc2n1 (single isomer, unassigned) [Compound 153, (−)-6-chloro-N-(1-(3-(4-chloro-3-fluorophenoxy)-2-hydroxypropyl)piperidin-4-yl)quinoline-2-carboxamide] | 0 | 0 | 51.5 | 236 | 323 | increased protein translation | increase protein synthesis in a cell without full inhibition of ATF4 translation
9 | 9.1 | O=C(COc1ccc(Cl)cc1)N[C@H]1CC[C@H](NC(=O)[C@@H]2CNc3cc(Cl)ccc3O2)CC1 (single isomer, unassigned) [Compound 158, (+)-trans-6-chloro-N-(4-(2-(4-chlorophenoxy)acetamido)cyclohexyl)-3,4-dihydro-2H-benzo[b][1,4]oxazine-2-carboxamide] | 96 | 96 | 86.8 | 199 | 168 | – | –
10 | > 3000 | O=C(N[C@H]1CC[C@H](NCC(O)COc2ccc(Cl)c(F)c2)CC1)c1ccc2cc(Cl)ccc2n1 (stereo partly drawn) [Compound 30, trans-6-chloro-N-(4-((3-(4-chloro-3-fluorophenoxy)-2-hydroxypropyl)amino)cyclohexyl)quinoline-2-carboxamide] | 35 | 35 | 23.1 | 182 | 206 | increased protein translation | increase protein synthesis in a cell without full inhibition of ATF4 translation
11 | 27 | O=C(COc1ccc(Cl)c(F)c1)NC1CCN(CC(O)COc2ccc(Cl)c(F)c2)CC1 (single isomer, unassigned; (-)) [Compound 26, (−)-2-(4-chloro-3-fluorophenoxy)-N-(1-(3-(4-chloro-3-fluorophenoxy)-2-hydroxypropyl)piperidin-4-yl)acetamide] | 91 | 97 | 34.2 | 176 | 112 | – | –
12 | – | O=C(COc1ccc(Cl)c(F)c1)N1CCC(NCC(O)COc2ccc(Cl)c(F)c2)CC1 (stereo not drawn) [Compound 14, 2-(4-chloro-3-fluorophenoxy)-1-(4-((3-(4-chloro-3-fluorophenoxy)-2-hydroxypropyl)amino)piperidin-1-yl)ethan-1-one] | 0 | 0 | – | – | – | – | –
13 | – | O=C(COc1ccc(Cl)c(F)c1)N[C@H]1CC[C@H](NC(=O)C(O)COc2ccc(Cl)c(F)c2)CC1 (stereo partly drawn) [Compound 9, trans-3-(4-chloro-3-fluorophenoxy)-N-(4-(2-(4-chloro-3-fluorophenoxy)acetamido)cyclohexyl)-2-hydroxypropanamide] | 12 | 20 | – | – | – | – | –
14 | – | O=C(COc1ccc(Cl)cc1)N[C@H]1CC[C@H](NC(=O)C(O)COc2ccc(Cl)cc2)CC1 (stereo partly drawn) [Compound 8, trans-3-(4-chlorophenoxy)-N-(4-(2-(4-chlorophenoxy)acetamido)cyclohexyl)-2-hydroxypropanamide] | 0 | 0 | – | – | – | – | –
15 | – | O=C(COc1ccc(Cl)cc1)NC1CCN(C[C@@H](O)COc2ccc(Cl)cc2)CC1 (single isomer, unassigned) [Compound 16, (+)-2-(4-chlorophenoxy)-N-(1-(3-(4-chlorophenoxy)-2-hydroxypropyl)piperidin-4-yl)acetamide] | 0 | 38 | – | – | – | – | –
16 | – | O=C(COc1ccc(Cl)cc1)N[C@H]1CC[C@H](NC[C@H](O)COc2ccc(Cl)cc2)CC1 (single isomer, unassigned) [Compound 4, (−)-2-(4-chlorophenoxy)-N-(4-((3-(4-chlorophenoxy)-2-hydroxypropyl)amino)cyclohexyl)acetamide] | 31 | 54 | – | – | – | – | –
17 | – | O=C(COc1ccc(Cl)c(F)c1)N[C@H]1CC[C@H](NC[C@H](O)COc2ccc(Cl)c(F)c2)CC1 (single isomer, unassigned) [Compound 7, (−)-2-(4-chloro-3-fluorophenoxy)-N-(4-((3-(4-chloro-3-fluorophenoxy)-2-hydroxypropyl)amino)cyclohexyl)acetamide] | 0 | 0 | – | – | – | – | –
